Measured values from patent US12590106B2, “Spiromacrocyclic orexin 2 receptor agonists” (H. Lundbeck A/S, priority 2023, dated 2026).

Key:
P-gp (MDR1) = target: T1, P-gp (MDR1) (Homo sapiens, UniProt P08183); assay: MDR1-MDCKII assay (bidirectional transport); format: in vitro ADME; conditions: MDCK-MDR1, pH 7.4, test compound 0.5 μM, MDR1-MDCKII monolayer; for efflux ratio at 0.5 μM: read-out: ER (efflux ratio); for Papp A→B at 0.5 μM: apical to basolateral
T1 construct: host or cells: MDCKII (canine kidney) cells transfected with human MDR1
Experimental: Bidirectional transport in MDCKII cells transfected with human MDR1 were assessed according to previously published methodology (Langthaler, K. et al. (2024). Fluids Barriers CNS, 21 (11): 1-15). In brief, cells obtained from the Netherlands Cancer Institute were maintained at 37° C. in α-MEM containing 10% FBS, 100 μg/mL penicillin-G, 100 μg/mL streptomycin, 1% non-essential amino acid under culture conditions of 5% CO2 and 95% relative humidity. Transport of test compound (0.5 μM, 0.4% DMSO final concentrations) across the cell monolayer was determined in triplicate on a single test occasion along with controls for low and high permeability (fenoterol and metoprolol, 2 μM) and P-gp efflux (digoxin, 10 μM). Each compound was loaded onto either the apical side (75 μL) or basolateral side (275 μL) with transport buffer (1% BSA in HBSS with 10 mM HEPES (pH 7.4)) on the opposing side of the cells (e.g. 50 μL or 250 μL on the apical or basolateral side). A sample (25 μL) from the donor compartment was taken 30 s after test compound is loaded onto the plate, resulting in a final incubation volume of 50 μL and 250 μL on apical and basolateral sides respectively. At the end of the incubation period, samples (75 μL) were taken from both sides. The donor samples (25 μL) were firstly diluted with transport buffer (50 μL) and then all samples were quenched in acetonitrile (125 μL) containing internal analytical standards. After centrifugation (20 min, 3220 g, 4° C.) the supernatants were analysed by LC-MS/MS. The apparent permeability coefficient (Papp) and efflux ratio (ER) were calculated using the equations below; where dCr/dt is the compound concentration in the receiver chamber as a function of time (μM/s); Vr is the solution volume in the receiver chamber; A is the surface area of the cell monolayer; C0 is the initial concentration in the donor compartment; and Papp A-B and Papp B-A refer to the apparent permeabilities in the respective directions. Compound permeability is classified as low, moderate, or high according to Papp value binning classifications: <1, 1 to 6 or >6×10^−6 cm/s, respectively. The ER is employed to classify compounds as unlikely, possible, or likely P-gp substrates when ER was: <1.5, 1.5 to <2 or >2, respectively.

human Ox2R = target: T2, human Ox2R (Homo sapiens, UniProt O43614); assay: Measurement of OX2R agonist activity (cell-based calcium release assay); conditions: hOx2R-CHO Flp-In cells, n≥2 tests; for EC50: intracellular calcium, read-out: EC50; for Emax: normalized to assay buffer (0%) and 10 μM Danavorexton (100%), read-out: Emax (%)
T2 construct: The gene encoding hOx2R was subcloned into the expression plasmid pcDNA5/FRT/TO; expressed in transfected cells; host or cells: CHO Flp-In cells (pcDNA5/FRT/TO with pOG44 Flp recombinase vector, hygromycin B selection)
T2 sequence (O43614 1-444): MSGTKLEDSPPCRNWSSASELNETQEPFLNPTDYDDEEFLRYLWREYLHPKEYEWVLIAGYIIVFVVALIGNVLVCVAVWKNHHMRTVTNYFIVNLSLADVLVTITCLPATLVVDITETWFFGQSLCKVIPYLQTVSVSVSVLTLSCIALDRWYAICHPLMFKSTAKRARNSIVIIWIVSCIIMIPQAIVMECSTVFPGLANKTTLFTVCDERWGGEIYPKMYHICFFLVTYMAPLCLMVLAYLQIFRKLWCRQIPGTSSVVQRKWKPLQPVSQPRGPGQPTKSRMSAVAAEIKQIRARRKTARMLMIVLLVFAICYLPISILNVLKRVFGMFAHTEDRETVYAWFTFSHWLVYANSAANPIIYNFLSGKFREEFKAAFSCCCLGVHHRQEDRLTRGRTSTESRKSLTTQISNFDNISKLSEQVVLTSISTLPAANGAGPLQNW
How it was run: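 CHO Flp-In cells stably expressing human Ox2R, dye-loaded 1 h at 37 °C in HBSS/20 mM HEPES pH 7.4 with 2.5 mM probenecid and 10 mM CaCl2, then stimulated with compound.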

T1 sequence (P08183 whole entry): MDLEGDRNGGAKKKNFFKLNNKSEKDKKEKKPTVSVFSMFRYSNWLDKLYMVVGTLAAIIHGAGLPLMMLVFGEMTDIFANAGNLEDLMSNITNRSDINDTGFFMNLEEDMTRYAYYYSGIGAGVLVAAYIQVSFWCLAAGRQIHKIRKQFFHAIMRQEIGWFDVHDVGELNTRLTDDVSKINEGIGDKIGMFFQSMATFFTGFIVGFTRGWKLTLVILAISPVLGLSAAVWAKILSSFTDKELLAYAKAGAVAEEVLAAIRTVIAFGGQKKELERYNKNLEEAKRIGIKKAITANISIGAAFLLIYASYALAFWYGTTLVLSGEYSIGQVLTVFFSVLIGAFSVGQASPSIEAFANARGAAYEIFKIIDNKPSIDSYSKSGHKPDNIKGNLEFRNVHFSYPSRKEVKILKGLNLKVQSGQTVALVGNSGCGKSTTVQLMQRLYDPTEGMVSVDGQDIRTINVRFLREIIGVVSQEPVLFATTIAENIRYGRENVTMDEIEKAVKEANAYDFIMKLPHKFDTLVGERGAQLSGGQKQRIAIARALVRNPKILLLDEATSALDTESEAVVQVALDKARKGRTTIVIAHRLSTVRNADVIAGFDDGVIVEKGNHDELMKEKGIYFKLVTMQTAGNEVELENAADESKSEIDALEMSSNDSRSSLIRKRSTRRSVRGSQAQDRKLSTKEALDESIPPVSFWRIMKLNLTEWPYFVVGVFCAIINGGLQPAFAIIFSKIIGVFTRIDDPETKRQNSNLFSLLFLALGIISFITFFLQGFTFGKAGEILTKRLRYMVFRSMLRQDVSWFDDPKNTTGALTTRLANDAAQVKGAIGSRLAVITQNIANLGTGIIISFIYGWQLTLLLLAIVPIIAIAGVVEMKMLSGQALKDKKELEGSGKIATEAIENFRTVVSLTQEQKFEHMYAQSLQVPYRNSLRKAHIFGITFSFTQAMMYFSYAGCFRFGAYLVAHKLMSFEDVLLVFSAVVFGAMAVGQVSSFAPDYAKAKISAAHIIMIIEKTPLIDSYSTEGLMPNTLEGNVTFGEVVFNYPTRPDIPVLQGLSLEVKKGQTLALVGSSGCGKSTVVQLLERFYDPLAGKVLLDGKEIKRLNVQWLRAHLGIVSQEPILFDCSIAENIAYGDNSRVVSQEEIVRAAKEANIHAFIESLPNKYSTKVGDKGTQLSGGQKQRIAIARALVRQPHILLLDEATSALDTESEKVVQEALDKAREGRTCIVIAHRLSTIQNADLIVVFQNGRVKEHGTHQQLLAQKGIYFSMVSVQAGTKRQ

Row | SMILES | efflux ratio at 0.5 μM (P-gp (MDR1)) | Papp A→B at 0.5 μM (P-gp (MDR1)) [×10⁻⁶ cm/s] | EC50 (human Ox2R) [nM] | Emax (human Ox2R) [%]
1 | CS(=O)(=O)NC1CC[C@@]2(CO[C@H]3CC[C@H](CC3)c3cccc(F)c3OCc3coc2n3)C1 (stereo partly drawn) [Example 100, N-[(1R,1′S,14S,17R)-6-fluorospiro[8,12,16-trioxa-22-azatetracyclo[15.2.2.110,13.02,7]docosa-2,4,6,10,13(22)-pentaene-14,3′-cyclopentane]-1′-yl]methanesulfonamide] | 1.8 | 10.2 | 0.037 | 100
2 | CS(=O)(=O)N[C@@H]1C[C@]2(Cc3ccc(F)c(c3)-c3cccc(F)c3OCc3coc2n3)[C@H]2C[C@@H]12 [Example 117, N-[(1′R,2′R,5′S,14R)-6,19-difluorospiro[8,12-dioxa-21-azatetracyclo[14.3.1.110,13.02,7]henicosa-1(20),2,4,6,10,13(21),16,18-octaene-14,4′-bicyclo[3.1.0]hexane]-2′-yl]methanesulfonamide] | 1.9 | 9.31 | 0.048 | 100
3 | CS(=O)(=O)N[C@H]1CC[C@@]2(Cc3ccc(F)c(c3)-c3cccc(F)c3OCc3coc2n3)C1 [Example 8, N-[(1′S,14R)-6,19-difluorospiro[8,12-dioxa-21-azatetracyclo[14.3.1.110,13.02,7]henicosa-1(19),2,4,6,10,13(21),16(20),17-octaene-14,3′-cyclopentane]-1′-yl]methanesulfonamide] | 1.3 | 11.5 | 0.064 | 99
4 | CS(=O)(=O)N[C@H]1CC[C@@]2(Cc3ccc(Cl)c(c3)-c3cccc(F)c3OCc3coc2n3)C1 [Example 16, N-[(1′S,14R)-19-chloro-6-fluoro-spiro[8,12-dioxa-21-azatetracyclo[14.3.1.110,13.02,7]henicosa-1(19),2,4,6,10,13(21),16(20),17-octaene-14,3′-cyclopentane]-1′-yl]methanesulfonamide] | 1 | 9.31 | 0.051 | 99
5 | O=S(=O)(N[C@H]1CC[C@@]2(Cc3cc(c(F)cc3F)-c3cccc(F)c3OCc3coc2n3)C1)C1CC1 [Example 104, N-[(1′S,14R)-6,17,19-trifluorospiro[8,12-dioxa-21-azatetracyclo[14.3.1.110,13.02,7]henicosa-1(19),2,4,6,10,13(21),16(20),17-octaene-14,3′-cyclopentane]-1′-yl]cyclopropanesulfonamide] | 1.6 | 9.52 | 0.08 | 100
6 | O=S(=O)(CF)N[C@H]1CC[C@@]2(Cc3ccc(F)c(c3)-c3cccc(F)c3OCc3coc2n3)C1 [Example 113, N-[(1′S,14R)-6,19-difluorospiro[8,12-dioxa-21-azatetracyclo[14.3.1.110,13.02,7]henicosa-1(20),2,4,6,10,13(21),16,18-octaene-14,3′-cyclopentane]-1′-yl]-1-fluoro-methanesulfonamide] | 1.3 | 6.47 | 0.054 | 95
7 | CS(=O)(=O)N[C@H]1CC[C@@]2(Cc3cc(c(F)cc3F)-c3cccc(F)c3OCc3coc2n3)C1 [Example 39, N-[(1′S,14R)-6,17,19-trifluorospiro[8,12-dioxa-21-azatetracyclo[14.3.1.110,13.02,7]henicosa-1(19),2,4,6,10,13(21),16(20),17-octaene-14,3′-cyclopentane]-1′-yl]methanesulfonamide] | 1.1 | 10.2 | 0.035 | 97
8 | CCS(=O)(=O)N[C@H]1CC[C@@]2(Cc3ccc(F)c(c3)-c3cccc(F)c3OCc3coc2n3)C1 [Example 21, N-[(1′S,14R)-6,19-difluorospiro[8,12-dioxa-21-azatetracyclo[14.3.1.110,13.02,7]henicosa-1(19),2,4,6,10,13(21),16(20),17-octaene-14,3′-cyclopentane]-1′-yl]ethanesulfonamide] | 1.4 | 9.89 | 0.083 | 100

More lines, in order of falling EC50 (human Ox2R), values ahead:

Row | efflux ratio at 0.5 μM (P-gp (MDR1)) | Papp A→B at 0.5 μM (P-gp (MDR1)) [×10⁻⁶ cm/s] | EC50 (human Ox2R) [nM] | Emax (human Ox2R) [%] | SMILES
9 | 1.8 | 9.04 | 0.077 | 97 | CS(=O)(=O)N[C@H]1CC[C@@]2(Cc3cc(c(F)cc3F)-c3cc(F)cc(F)c3OCc3coc2n3)C1 [Example 30, N-[(1′S,14R)-4,6,17,19-tetrafluorospiro[8,12-dioxa-21-azatetracyclo[14.3.1.110,13.02,7]henicosa-1(19),2,4,6,10,13(21),16(20),17-octaene-14,3′-cyclopentane]-1′-yl]methanesulfonamide]
10 | 1.5 | 3.87 | 0.068 | 98 | O=S(=O)(N[C@H]1CC[C@@]2(Cc3ccc(F)c(c3)-c3cccc(F)c3OCc3coc2n3)C1)C1(F)CC1 [Example 116, N-[(1′S,14R)-6,19-difluorospiro[8,12-dioxa-21-azatetracyclo[14.3.1.110,13.02,7]henicosa-1(20),2,4,6,10,13(21),16,18-octaene-14,3′-cyclopentane]-1′-yl]-1-fluoro-cyclopropanesulfonamide]
11 | 2 | 8.2 | 0.066 | 97 | Cc1oc2nc1COc1c(F)cccc1-c1cc(ccc1F)C[C@@]21CC[C@H](NS(C)(=O)=O)C1 [Example 25, N-[(1′S,14R)-6,19-difluoro-11-methyl-spiro[8,12-dioxa-21-azatetracyclo[14.3.1.110,13.02,7]henicosa-1(19),2,4,6,10,13(21),16(20),17-octaene-14,3′-cyclopentane]-1′-yl]methanesulfonamide]
12 | 1 | 13 | 0.062 | 98 | CS(=O)(=O)N[C@H]1CC[C@@]2(CO[C@H]3CC[C@H](CC3)c3cccc(n3)OCc3coc2n3)C1 [Example 42, N-[(1s,1′S,13S,16s)-spiro[7,11,15-trioxa-21,22-diazatetracyclo[14.2.2.12,6.19,12]docosa-2,4,6(22),9,12(21)-pentaene-13,3′-cyclopentane]-1′-yl]methanesulfonamide]
13 | 1.1 | 8.23 | 0.058 | 100 | CS(=O)(=O)N[C@H]1CC[C@@]2(Cc3cc(c(F)cc3F)-c3cccc(F)c3OCc3csc2n3)C1 [Example 36, N-[(1′S,14R)-6,17,19-trifluorospiro[8-oxa-12-thia-21-azatetracyclo[14.3.1.110,13.02,7]henicosa-1(19),2,4,6,10,13(21),16(20),17-octaene-14,3′-cyclopentane]-1′-yl]methanesulfonamide]
